Consider three compounds from patent US8350049B2, “Immobilized 1,2-benzisothiazolin-3-one” (priority 2006, dated 2013).

The conditions of data set [1]: ambient temperature; cited from earlier work.
In data set [2] the test system is Pseudomonas aeruginosa DSM 939. Nature of the data set: Dry-film bactericide test, modified Swiss Standard SNV195120, water-based interior flat paint. Format: cell-based. The procedure: The activity of the immobilized BIT/ZnO complex from Example 8 as a dry-film bactericide against Pseudomonas aeruginosa DSM 939 was determined in an ICI UK, Diamond Matt paint, a commercially available water-based interior flat paint (40% acrylic binder) according to the modified Swiss Standard SNV195120, which is described below
The immobilized BIT/ZnO complex from example 8 was incorporated into the water-based interior flat paint at the levels shown in the Table below. The paints were allowed to equilibrate for one week at room temperature.
A quantity of 50 mg of the BIT/ZnO complex was mixed with 100 g of the paint (resulting in 0.05% of the specimen 1 in the table below, the other specimens were prepared accordingly). Round filter papers (5.5 cm diameter) were coated with the test material to a thickness of 150 g/m2 wet and the resulting specimens dried at room temperature.
One half of the test specimen was leached by tap water (9 liters per m^2) in a beaker. The specimens were dried at room temperature and sterilized by gamma radiation from a cobalt 60 source (25 kGy). In the microbiological test, Pseudomonas aeruginosa DSM 939 was used as the bacteria source.
Liquid cultures of each bacterial strain were incubated over night at appropriate temperatures and then diluted 1:100,000 to result in a count of 10^4 cfu per ml. […]

Data set [3] relates to Pseudomonas aeruginosa DSM 939. Kind of data set: Dry-film bactericide test, modified Swiss Standard SNV195120, water-based interior eggshell paint. Format: cell-based. More on the design: key: 0H: No bacterial growth under the specimen, inhibition zone on the nutrient.; 0: No growth of bacteria under the specimen.; Growth of bacteria under the specimen. The procedure:
The activity of the immobilized BIT/ZnO complex from Example 8 as a dry-film bactericide against Pseudomonas aeruginosa DSM 939 was determined in a commercially available water-based interior eggshell paint (40% acrylic binder with an adhesion promoter) according to the modified Swiss Standard SNV195120. The composition of the paint, which is typically applied in wet rooms, is set out below.
The microbiological test was performed according to the procedure described in Example 14.

The subject of data set [4] is Escherichia coli. Nature of the data set: JIS Z2801 test after 24 h water leaching (severe environmental conditions), interior flat paint. Format: cell-based. As to conditions: specimens leached in water 24 hours; contact time 24 hrs; active conc. 0.05%. The method, then:
(§1) The complex was coated on to Leneta Scrub Resistance test panels, with a dry film thickness of 200 micrometers, with a foam roller allowing a drying time of 18 hours between coats. The panels were equilibrated in the dark for 7 days. Subsamples were cut (each 50 mm×50 mm). The samples were inoculated with a suspension of the test bacteria and then incubated in chambers (1 per species) at 20° C. and 65% relative humidity.
The activity of the immobilized BIT/ZnO complex from Example 8 as a dry-film bactericide after artificial aging against Escherichia coli was determined in ICI UK, Diamond Matt paint, a commercially available water-based interior flat paint (40% acrylic binder) according to the JIS Z2801 test. The paint specimens were prepared as described in example 19. The microbiological test was performed according to the procedure described in Example 16. After equilibration, the specimens were leached in water (24 hours) to simulate use conditions in a severe environment. The paint film was cleaned by water jet.

Data set [5] has as its system Pseudomonas aeruginosa DSM 939. Kind of data set: JIS Z2801 test after 24 h water leaching (severe environmental conditions), paint of example 15. Format: cell-based. As to conditions: specimens leached in water 24 hours; contact time 24 hrs; active conc. 0.05%. The method, then:
as §1
The activity of the immobilized BIT/ZnO complex from Example 8 as a dry-film bactericide after aging against Pseudomonas aeruginosa DSM 939 was determined in the paint described in example 15 according to the JIS Z2801 test. The microbiological test was performed according to the procedure described in Example 16. After equilibration, the specimens were leached in water (24 hours) to simulate use conditions in a severe environment. The paint film was cleaned by water jet.

Data set [6] concerns Escherichia coli. Nature of the data set: JIS Z2801:2000 (E) test, water-based interior flat paint. It counts as cell-based. As to conditions: contact time 8 hrs; active conc. 0.05%. The method, then:
The activity of the immobilized BIT/ZnO complex from Example 9 as a dry-film bactericide against Escherichia coli was determined in ICI UK, Diamond Matt is paint, a commercially available water-based interior flat paint (40% acrylic binder) according to the JIS Z2801:2000 (E) test (Japanese Industrial Standard Z2801:2000 (E) test, Antimicrobial products—Test for antimicrobial activity and efficacy).
as §1
Swabs were employed for recovery of the bacteria. From the blank sample 1.8×10^5 cfu/cm^2 were recovered. This number was taken as the starting bacterial load on the surface.

The subject of data set [7] is Pseudomonas aeruginosa DSM 939. Kind of data set: JIS Z2801 test, interior acrylic wall paint of example 15. It counts as cell-based. As to conditions: contact time 8 hrs; active conc. 0.05%. The method, then: as §1
The activity of the immobilized BIT/ZnO complex from Example 8 as a dry-film bactericide against Pseudomonas aeruginosa DSM 939 was determined in the paint described in example 15 according to the JIS Z2801 test. The microbiological test was performed according to the procedure described in to Example 16.

For data set [8], the system named is Pseudomonas aeruginosa DSM 939. Kind of data set: JIS Z2801:2000 (E) test, water-based interior flat paint. To be noted: contact time 8 hrs; active conc. 0.05%. It counts as cell-based. The procedure:
as §1
The activity of the immobilized BIT/ZnO complex from Example 8 as a dry-film bactericide against Pseudomonas aeruginosa DSM 939 was determined in ICI UK, Diamond Matt paint, a commercially available water-based interior flat paint (40% acrylic binder) according to the JIS Z2801:2000 (E) test. The microbiological test was performed according to the procedure described in Example 16.

For the compound `O=c1[nH]sc2ccccc12` [BIT, 1,2-benzisothiazolin-3-one], the “solubility of BIT in methanol” value in data set [1] is recorded as “greater than 5%”.

In the case of `CN(C)C(=S)SSC(=S)N(C)C` [Thiram, tetramethylthiuram disulfide], the Psa unleached in data set [2] (active conc. 0.1%) was 0; in data set [2] (active conc. 0.2%), 0; in data set [3] (active conc. 0.1%), “G”; in data set [3] (active conc. 0.2%) it was “G”. Besides, the “Psa leached 24 h” value in data set [3] (active conc. 0.1%) and in data set [3] (active conc. 0.2%) was “G” in each case.

Zinc Pyrithione [ZPT]: the “Kill rate % related to blank paint” value with Escherichia coli [4] turned out to be 20%; in data set [5] it was 85.5%; in the data set on Escherichia coli [6] it was 96.4%; in data set [7], 39.5%; in data set [8] it was 69.40%. In addition, the “Log (Cfu/cm^2)” value in the data set on Escherichia coli [4] is 3.04 Log (Cfu/cm^2); in data set [5], 3.04 Log (Cfu/cm^2); in the data set on Escherichia coli [6] it was 3.76 Log (Cfu/cm^2); in data set [7] it was 4.66 Log (Cfu/cm^2); in data set [8] it was 4.18 Log (Cfu/cm^2).
